From article PMC4010497, “Synthesis and Evaluation of Fluorine-Substituted Phenyl Acetate Derivatives as Ultra-Short Recovery Sedative/Hypnotic Agents” (PLoS ONE, 2014) come the findings set out here.

Structures are written as SMILES.

For data set [1], the system named is rabbits. The data set can be described thus: Therapeutic index (LD50/HD50) in rabbits. It counts as in vivo, rabbit. Here is the method:
(§1) The LD50 was determined in mice, rats, and rabbits and the TI was calculated as LD50/HD50.

Data set [2] concerns rat. The data set can be described thus: Therapeutic index (LD50/HD50) in rat. It counts as in vivo. Here is the method: as §1
The test system of data set [3] is GABAA receptor. The data set can be described thus: GABAA radioligand binding assay ([3H]EBOB). Conditions: 50 µM compound, 0.5 nM [3H]EBOB, rat frontoparietal cortex. On the procedure: All the new compounds were dissolved in 5% DMSO.
Specific binding was determined in the presence of compounds.
Membrane suspensions were thawed and centrifuged in incubation buffer at 10,000×g for 10 min and washed by a similar centrifugation. For displacement studies, membrane suspensions (5 mg original wet wt./ml) were incubated with 0.5 nM [^3H]EBOB ([…], Perkin Elmer Life Sciences, Boston, MA, USA) in the absence or presence of 50 µM of new compounds or reference drug for 2 h at 25°C. Nonspecific binding was determined in the presence of 10 µM Bicuculline. Bicuculline and picrotoxin were frequently used to determine the nonspecific binding when [3H]EBOB as radioligand [17]. Triplicate 1 ml samples were filtered on Whatman GF/B filters under vacuum with a Brandel Harvester and washed with 3×3 ml ice-cold buffer.

Data set [4] in a line: In vitro metabolic half-life in dog whole blood. It counts as in vitro ADME, Beagle dog. Here is the method: (§2) Human whole blood stability experiments were conducted in whole blood from four human donors (male, 18–25 years). Single experiments were conducted with pooled blood from Sprague-Dawley rats (male, 8 weeks, n = 3), New Zealand White rabbits (male, 8–10 weeks, n = 3), Beagle dogs (male, 2–3 years, n = 3) and Cynomolgus monkeys (male, 3–4 years, n = 3). All the blood samples were provided by Xuzhou Medical College. A 1.35-ml aliquot of blood was warmed at 37°C for 5 min and hypnotic (from a 40 mM stock in DMSO solution) was added to a final concentration of 200 µM. After the specified incubation time, a 150-µl sample was removed and the metabolic reaction was quenched using 150-µl acetonitrile. Zero time-point samples were prepared by adding 150-µl acetonitrile (using a 4 mM stock in DMSO) to 150-µl blood before addition of the hypnotic. The quenched samples were centrifuged, and the supernatant was separated and stored at −20°C until analyzed. Hypnotic concentrations in thawed samples were determined by high-performance liquid chromatography using a 3-µm phenyl 4.6×50-mm C-A-25, ACE column with the UV detector set at 240 nm. A linear gradient 20–45% acetonitrile in water with 0.05% trifluoroacetic acid was run for more than 20 min at a flow rate of 1 ml/min. The lower limit of quantitation of this assay is 3 µM and the accuracy within 15% at 10 µM. The metabolic half-lives were quantified from the incubation time-dependent change in drug concentration.

Data set [5] in a line: In vitro metabolic half-life in monkey whole blood. The format is in vitro ADME. The following applies: male, Cynomolgus monkey (n = 3), 37°C, read-out: Mean t1/2 Value. On the procedure: as §2, with “A linear gradient 20–45% acetonitrile in water with 0.05% trifluoroacetic acid was run for more than 20 min at a flow rate of 1 ml/min.” left out
Data set [6] has as its system rabbits. The data set can be described thus: Hypnotic potency and recovery after IV bolus in rabbits. It counts as in vivo, rabbit. Here is the method: All tests were performed during the light period. Groups of mice, rats and rabbits were injected intravenously (lateral tail vein) over 10 s with each dose of test compound, placed in separate boxes to reduce external stimuli and assessed for the loss of righting reflex. Dosing was performed using mg/kg scheme. A set of dose levels was chosen, and depending on whether the loss of righting reflex was observed, extra doses were introduced to provide data for the loss of righting reflex over a narrow dose range to allow potency calculations.
Immediately following the injection, the mice, rats and rabbits were tested for loss of righting reflex. […] Once a loss was observed, the interval between the loss of righting reflex and the return to righting reflex was recorded. […] To compare the duration of LORR of each compound at equipotent doses, groups of mice, rats and rabbits were injected with each compound at 2× HD50 over 10 s.
Time to walk was the time required after righting before mice and rabbits walked from the center to the periphery of a 30-cm diameter dise.

Data set [7] can be described thus: Octanol:water partition coefficient. The format is physicochemical. The following applies: water buffered with 10 mm Tris (pH 7.4). Here is the method:
One mg of each hypnotic was added to 10 ml of water buffered with 10 mm Tris (pH 7.4) and 1 ml of octanol. The mixture was stirred overnight and then centrifuged to fully separate the organic and aqueous phases. The relative hypnotic concentration in each phase (i.e., the partition coefficient) was determined by high-performance liquid chromatography as described for blood.

Data set [8] concerns mice. As to the kind of experiment: in vivo. The following applies: LD50/HD50. On the procedure: as §1
The nature of data set [9]: in vivo. The following applies: mouse, in vivo; mice, 95% confidence limits. On the procedure:
as §1

A short description of data set [10]: In vitro metabolic half-life in rabbit whole blood. The format is in vitro ADME. Conditions: male, New Zealand White rabbit (n = 3), 37°C, read-out: Mean t1/2 Value. On the procedure: as §2, with “A linear gradient 20–45% acetonitrile in water with 0.05% trifluoroacetic acid was run for more than 20 min at a flow rate of 1 ml/min.” left out
The subject of data set [11] is rabbits. The data set can be described thus: Hypnosis in response to IV infusion in rabbits. It counts as in vivo, rabbit. On the procedure: Induction of hypnosis in rabbits was achieved using 2× HD50 dose of test compound, and immediately after induction, infusion via the tail vein was commenced at half the HD50 dosage per min. the infusion rate was maintained for 20 min or 1 h or 3 h later. The depth of hypnosis was monitored by the magnitude of a withdrawal reflex to intermittent paw pinch provided by a pair of forceps.

One may read the LD50 as the dose at which mortality reaches 50%. For the compound `CCOc1cc(CC(=O)OCC(F)(F)F)ccc1OCC(=O)N(CC)CC` [Compound 5j, 2,2,2-trifluoroethyl 2-(4-(2-(diethylamino)-2-oxoethoxy)-3-ethoxyphenyl)acetate], the TI in data set [1] was 21.2; in [2], 13.3; in [8], 7.8. The “GABAA binding (50 µmol) (Mean ± SD), percentage of inhibition” value in data set [3] was determined as 90.5±6.9%. The “stability in blood (in words)” value in [4] (dog blood) is reported as “stable”. Also, the half-life at 200 µM in data set [4] (male, whole blood, Beagle dog (n = 3), 37°C, 200 µM, read-out: Mean t1/2 Value) was more than 60 min; in [5], 48.9 ± 8.8 min; in data set [10], 11.6 ± 1.6 min. In addition, in [6] (2× HD50 dose, mean ± SD), the “Duration of LORR” value was 208.3 ± 19.8 s. For the same compound, in data set [6] (2× HD50 dose, mean ± SD), the Time to walk was determined as 15.5 ± 7.5 s. The HD50 in data set [6] (IV, 95% confidence limits) is given as 6.2 (4.7∼7.0) mg/kg. Besides, the “Octanol:Water Partition (Coefficient ± SD)” value in data set [7] was found to be 648±36. The same compound had an LD50 in [9] of 192 mg/kg. The figures for the “duration of LORR after cessation of infusion” value in data set [11] (1-h IV infusion), in [11] (3-h IV infusion) and in data set [11] (20-min IV infusion at half the HD50 per min after 2× HD50 induction) were 125.8 ± 57.6 s, 132.9 ± 56.2 s and 117.5 ± 47.2 s, respectively. Besides, the “time to walk after infusion” value in data set [11] (20-min IV infusion) stood at 15.5 ± 7.55 s.
